According to PubChem BioAssay (NCI):
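48-hour exposure; five concentrations; linearly interpolated endpoints. GI50 = concentration required for 50% inhibition of growth. TGI is the concentration that stops growth completely.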

Columns and labels:
Assay in all cases: growth of human tumour cells (NCI), 48 h
U251 CNS = tested on: U251 CNS
SF-539 CNS = tested on: SF-539 CNS
HCT-15 colon = tested on: HCT-15 colon
DU-145 prostate = tested on: DU-145 prostate
MOLT-4 leukemia = tested on: MOLT-4 leukemia
IGROV1 ovarian = tested on: IGROV1 ovarian
RXF 393 renal = tested on: RXF 393 renal
SNB-19 CNS = tested on: SNB-19 CNS
SK-MEL-2 melanoma = tested on: SK-MEL-2 melanoma
UACC-257 melanoma = tested on: UACC-257 melanoma
SK-OV-3 ovarian = tested on: SK-OV-3 ovarian
OVCAR-8 ovarian = tested on: OVCAR-8 ovarian
A498 renal = tested on: A498 renal
NCI-H522 lung = tested on: NCI-H522 lung
SK-MEL-28 melanoma = tested on: SK-MEL-28 melanoma
OVCAR-4 ovarian = tested on: OVCAR-4 ovarian
EKVX NSCLC = tested on: EKVX NSCLC
OVCAR-5 ovarian = tested on: OVCAR-5 ovarian
TK-10 renal = tested on: TK-10 renal
A549 NSCLC = tested on: A549 NSCLC
786-0 renal = tested on: 786-0 renal
SK-MEL-5 melanoma = tested on: SK-MEL-5 melanoma
SR leukemia = tested on: SR leukemia
NCI-H226 lung = tested on: NCI-H226 lung
MDA-MB-231 breast = tested on: MDA-MB-231 breast
HL-60(TB) leukemia = tested on: HL-60(TB) leukemia
CCRF-CEM leukemia = tested on: CCRF-CEM leukemia
SN12C renal = tested on: SN12C renal
KM12 colon = tested on: KM12 colon
NCI-H460 lung = tested on: NCI-H460 lung
HS 578T breast = tested on: HS 578T breast
UO-31 renal = tested on: UO-31 renal
SW-620 colon = tested on: SW-620 colon
RPMI-8226 leukemia = tested on: RPMI-8226 leukemia
HCT-116 colon = tested on: HCT-116 colon
M14 melanoma = tested on: M14 melanoma
MALME-3M melanoma = tested on: MALME-3M melanoma
HCC-2998 colon = tested on: HCC-2998 colon
HOP-62 NSCLC = tested on: HOP-62 NSCLC
ACHN renal = tested on: ACHN renal
LOX IMVI melanoma = tested on: LOX IMVI melanoma
K-562 leukemia = tested on: K-562 leukemia
HOP-92 NSCLC = tested on: HOP-92 NSCLC
SF-295 CNS = tested on: SF-295 CNS
BT-549 breast = tested on: BT-549 breast
UACC-62 melanoma = tested on: UACC-62 melanoma
CAKI-1 renal = tested on: CAKI-1 renal
MCF7 breast = tested on: MCF7 breast
PC-3 prostate = tested on: PC-3 prostate
NCI-H23 lung = tested on: NCI-H23 lung
HT29 colon = tested on: HT29 colon
MDA-MB-435 = tested on: MDA-MB-435
NCI/ADR-RES ovarian = tested on: NCI/ADR-RES ovarian
COLO 205 colon = tested on: COLO 205 colon
T-47D breast = tested on: T-47D breast
OVCAR-3 ovarian = tested on: OVCAR-3 ovarian
SNB-75 CNS = tested on: SNB-75 CNS
SF-268 CNS = tested on: SF-268 CNS

Q: Which GI50 (U251 CNS) does the source give for `COc1cc(C(=O)/C=C/c2c(C)n([O-])c3ccc(C(F)(F)F)cc3[n+]2=O)cc(OC)c1OC` here?
A: 8.83 µM

Q: What about the TGI (U251 CNS) of the same compound?
A: 24.1 µM

Q: And the GI50 (SF-539 CNS)?
A: 3.7 µM

Q: And the TGI (SF-539 CNS)?
A: 15 µM

Q: What about the GI50 (HCT-15 colon) of the same compound?
A: 3.55 µM

Q: What about the TGI (HCT-15 colon) of the same compound?
A: 24.2 µM

Q: What about the GI50 (DU-145 prostate) of the same compound?
A: 4.11 µM

Q: What about the TGI (DU-145 prostate) of the same compound?
A: 14.3 µM

Q: What about the GI50 (MOLT-4 leukemia) of the same compound?
A: 1.75 µM

Q: What about the TGI (MOLT-4 leukemia) of the same compound?
A: 5.11 µM

Q: What about the GI50 (IGROV1 ovarian) of the same compound?
A: 7.54 µM

Q: And the TGI (IGROV1 ovarian)?
A: 48.4 µM

Q: What about the GI50 (RXF 393 renal) of the same compound?
A: 1.44 µM

Q: And the TGI (RXF 393 renal)?
A: 2.86 µM

Q: What about the GI50 (SNB-19 CNS) of the same compound?
A: 36.1 µM

Q: And the TGI (SNB-19 CNS)?
A: > 100 µM

Q: And the GI50 (SK-MEL-2 melanoma)?
A: 4 µM

Q: What about the TGI (SK-MEL-2 melanoma) of the same compound?
A: 13.5 µM

Q: What about the GI50 (UACC-257 melanoma) of the same compound?
A: 1.78 µM

Q: And the TGI (UACC-257 melanoma)?
A: 3.94 µM

Q: What about the GI50 (SK-OV-3 ovarian) of the same compound?
A: 27.1 µM

Q: What about the TGI (SK-OV-3 ovarian) of the same compound?
A: > 100 µM

Q: And the GI50 (OVCAR-8 ovarian)?
A: 2.99 µM

Q: What about the TGI (OVCAR-8 ovarian) of the same compound?
A: > 31.1 µM

Q: And the GI50 (A498 renal)?
A: 14.5 µM

Q: What about the TGI (A498 renal) of the same compound?
A: 51.7 µM

Q: And the GI50 (NCI-H522 lung)?
A: 0.232 µM

Q: What about the TGI (NCI-H522 lung) of the same compound?
A: 0.784 µM

Q: And the GI50 (SK-MEL-28 melanoma)?
A: 7.62 µM

Q: What about the TGI (SK-MEL-28 melanoma) of the same compound?
A: 23.6 µM

Q: What about the GI50 (OVCAR-4 ovarian) of the same compound?
A: 7.1 µM

Q: And the TGI (OVCAR-4 ovarian)?
A: > 100 µM

Q: What about the GI50 (EKVX NSCLC) of the same compound?
A: 21.4 µM

Q: What about the TGI (EKVX NSCLC) of the same compound?
A: > 100 µM

Q: And the GI50 (OVCAR-5 ovarian)?
A: 15.2 µM

Q: And the TGI (OVCAR-5 ovarian)?
A: > 83.4 µM

Q: What about the GI50 (TK-10 renal) of the same compound?
A: 1.41 µM

Q: What about the TGI (TK-10 renal) of the same compound?
A: 2.82 µM

Q: What about the GI50 (A549 NSCLC) of the same compound?
A: 19.8 µM

Q: And the TGI (A549 NSCLC)?
A: > 93.3 µM

Q: And the GI50 (786-0 renal)?
A: 1.96 µM

Q: What about the TGI (786-0 renal) of the same compound?
A: 4.31 µM

Q: And the GI50 (SK-MEL-5 melanoma)?
A: 17.6 µM

Q: And the TGI (SK-MEL-5 melanoma)?
A: > 57.3 µM

Q: What about the GI50 (SR leukemia) of the same compound?
A: 2.67 µM

Q: What about the TGI (SR leukemia) of the same compound?
A: > 100 µM

Q: And the GI50 (NCI-H226 lung)?
A: 15.1 µM

Q: And the TGI (NCI-H226 lung)?
A: > 57.7 µM

Q: And the GI50 (MDA-MB-231 breast)?
A: 8.54 µM

Q: And the TGI (MDA-MB-231 breast)?
A: > 79.3 µM

Q: And the GI50 (HL-60(TB) leukemia)?
A: 2.92 µM

Q: What about the TGI (HL-60(TB) leukemia) of the same compound?
A: 7.89 µM

Q: And the GI50 (CCRF-CEM leukemia)?
A: 0.564 µM

Q: What about the TGI (CCRF-CEM leukemia) of the same compound?
A: > 100 µM

Q: And the GI50 (SN12C renal)?
A: 6.89 µM

Q: What about the TGI (SN12C renal) of the same compound?
A: > 100 µM

Q: And the GI50 (KM12 colon)?
A: 13.5 µM

Q: What about the TGI (KM12 colon) of the same compound?
A: 34.3 µM

Q: What about the GI50 (NCI-H460 lung) of the same compound?
A: 10.7 µM

Q: And the TGI (NCI-H460 lung)?
A: 29.1 µM

Q: And the GI50 (HS 578T breast)?
A: 7.55 µM

Q: And the TGI (HS 578T breast)?
A: > 77.8 µM

Q: What about the GI50 (UO-31 renal) of the same compound?
A: 1.45 µM

Q: And the TGI (UO-31 renal)?
A: 3.51 µM

Q: And the GI50 (SW-620 colon)?
A: 0.68 µM

Q: And the TGI (SW-620 colon)?
A: 2.04 µM

Q: And the GI50 (RPMI-8226 leukemia)?
A: 5.23 µM

Q: And the TGI (RPMI-8226 leukemia)?
A: 48.9 µM

Q: And the GI50 (HCT-116 colon)?
A: 0.83 µM

Q: What about the TGI (HCT-116 colon) of the same compound?
A: 2.51 µM

Q: What about the GI50 (M14 melanoma) of the same compound?
A: 2.42 µM

Q: And the TGI (M14 melanoma)?
A: 8.46 µM

Q: What about the GI50 (MALME-3M melanoma) of the same compound?
A: 1.74 µM

Q: And the TGI (MALME-3M melanoma)?
A: 4.19 µM

Q: What about the GI50 (HCC-2998 colon) of the same compound?
A: 15.5 µM

Q: What about the TGI (HCC-2998 colon) of the same compound?
A: 35.7 µM

Q: And the GI50 (HOP-62 NSCLC)?
A: 25.2 µM

Q: And the TGI (HOP-62 NSCLC)?
A: > 100 µM

Q: What about the GI50 (ACHN renal) of the same compound?
A: 1.49 µM

Q: And the TGI (ACHN renal)?
A: 3.82 µM

Q: And the GI50 (LOX IMVI melanoma)?
A: 0.77 µM

Q: And the TGI (LOX IMVI melanoma)?
A: 2.66 µM

Q: And the GI50 (K-562 leukemia)?
A: 1.65 µM

Q: And the TGI (K-562 leukemia)?
A: 5.85 µM

Q: What about the GI50 (HOP-92 NSCLC) of the same compound?
A: 3.04 µM

Q: What about the TGI (HOP-92 NSCLC) of the same compound?
A: 21.3 µM

Q: What about the GI50 (SF-295 CNS) of the same compound?
A: 26.2 µM

Q: What about the TGI (SF-295 CNS) of the same compound?
A: > 90.7 µM

Q: And the GI50 (BT-549 breast)?
A: 8.34 µM

Q: What about the TGI (BT-549 breast) of the same compound?
A: 25.6 µM

Q: What about the GI50 (UACC-62 melanoma) of the same compound?
A: 3.62 µM

Q: And the TGI (UACC-62 melanoma)?
A: 13.8 µM

Q: What about the GI50 (CAKI-1 renal) of the same compound?
A: 3.32 µM

Q: What about the TGI (CAKI-1 renal) of the same compound?
A: > 38.1 µM

Q: What about the GI50 (MCF7 breast) of the same compound?
A: 4.26 µM

Q: What about the TGI (MCF7 breast) of the same compound?
A: 17.3 µM

Q: And the GI50 (PC-3 prostate)?
A: 6.41 µM

Q: And the TGI (PC-3 prostate)?
A: > 100 µM

Q: And the GI50 (NCI-H23 lung)?
A: 3.8 µM

Q: What about the TGI (NCI-H23 lung) of the same compound?
A: 15.1 µM

Q: And the GI50 (HT29 colon)?
A: 1.69 µM

Q: What about the TGI (HT29 colon) of the same compound?
A: 3.99 µM

Q: What about the GI50 (MDA-MB-435) of the same compound?
A: 3.15 µM

Q: And the TGI (MDA-MB-435)?
A: 15.8 µM

Q: And the GI50 (NCI/ADR-RES ovarian)?
A: 3.54 µM

Q: And the TGI (NCI/ADR-RES ovarian)?
A: 97.7 µM

Q: What about the GI50 (COLO 205 colon) of the same compound?
A: 1.43 µM

Q: What about the TGI (COLO 205 colon) of the same compound?
A: 2.88 µM

Q: And the GI50 (T-47D breast)?
A: 2.15 µM

Q: What about the TGI (T-47D breast) of the same compound?
A: 7.83 µM

Q: What about the GI50 (OVCAR-3 ovarian) of the same compound?
A: 1.37 µM

Q: What about the TGI (OVCAR-3 ovarian) of the same compound?
A: 3.07 µM

Q: And the GI50 (SNB-75 CNS)?
A: 10.9 µM

Q: And the TGI (SNB-75 CNS)?
A: 24.6 µM

Q: What about the GI50 (SF-268 CNS) of the same compound?
A: 12.8 µM

Q: What about the TGI (SF-268 CNS) of the same compound?
A: 37.4 µM
